The record followed here is ChEMBL document CHEMBL1134375, “Synthesis of 2-amino-5-sulfanyl-1,3,4-thiadiazole derivatives and evaluation of their antidepressant and anxiolytic activity” (2001).

The species entered for assay [1] is Mus musculus. The assay can be described thus: Maximum percentage decrease in immobility time was determined by despair test in Male albino Swiss mice; NE=no effect. It counts as functional.
For assay [2], the system named is Rattus norvegicus. As to the kind of experiment: Percentage decrease in immobility time, after subchronic administration (intraperitoneally) in rat dosed at 20 mg/kg. It counts as functional. The settings on record: route intraperitoneal.
Assay [3] concerns Rattus norvegicus. As to the kind of experiment: Percentage decrease in immobility time, after acute administration (intraperitoneally) in rat dosed at 20 mg/kg. It counts as functional. The settings on record: route intraperitoneal.
Assay [4] relates to Rattus norvegicus. The assay can be described thus: Amnesia inducing potential (S1 latency) was determined by passive avoidance test in ratat 1 mg/kg dose. It counts as functional.
Assay [5] can be described thus: Percentage decrease in motor activity after intraperitoneal administration of a dose of 600 mg/kg in Male albino Swiss mice. It counts as functional, Mus musculus.
Assay [6] deals with Rattus norvegicus. The assay can be described thus: Amnesia inducing potential (S2 latency) was determined by passive avoidance test in rat at 2 mg/kg dose. It counts as functional.
Assay [7] has as its system Mus musculus. The assay can be described thus: Effective dose determined by rotarod test in mice (intraperitoneal administration). To be noted: ip. (In the rotarod test animals must keep their balance on a rotating rod.)
Assay [8] has as its system Rattus norvegicus. As to the kind of experiment: Amnesia inducing potential (S2 latency) was determined by passive avoidance test in rat at 1 mg/kg dose. It counts as functional.
Assay [9] relates to Mus musculus. As to the kind of experiment: Ethanol potentiation in mice (intraperitoneal administration). To be noted: ip.
The nature of assay [10]: Percentage decrease in motor activity after intraperitoneal administration of a dose of 500 mg/kg in Male albino Swiss mice. It counts as functional, Mus musculus.
Assay [11] has as its system Rattus norvegicus. As to the kind of experiment: Amnesia inducing potential (S1 latency) was determined by passive avoidance test in rat at 0 mg/kg dose. It counts as functional.
A short description of assay [12]: Percentage decrease in motor activity after intraperitoneal administration of a dose of 300 mg/kg in Male albino Swiss mice. It counts as functional, Mus musculus.
Assay [13] has as its system Rattus norvegicus. As to the kind of experiment: Amnesia inducing potential (S1 latency) was determined by passive avoidance test in rat at 2 mg/kg dose. It counts as functional.
Assay [14] has as its system Rattus norvegicus. The assay can be described thus: Amnesia inducing potential (S2 latency) was determined by passive avoidance test in rat at 0.5 mg/kg dose. It counts as functional.
Assay [15] in a line: Percentage decrease in motor activity after intraperitoneal administration of a dose of 400 mg/kg in Male albino Swiss mice. It counts as functional, Mus musculus.
For assay [16], the system named is Rattus norvegicus. As to the kind of experiment: Amnesia inducing potential (S1 latency) was determined by passive avoidance test in rat 0.5 mg/kg dose. It counts as functional.
In assay [17] the test system is Rattus norvegicus. As to the kind of experiment: Amnesia inducing potential (S2 latency) was determined by passive avoidance test in ratin rat at 0 mg/kg dose. It counts as functional.
Assay [18] can be described thus: Maximum percentage decrease in immobility time was determined by despair test at a dose of 10 mg/kg in Male albino Swiss mice. It counts as functional, Mus musculus.
The nature of assay [19]: Maximum percentage decrease in immobility time was determined by despair test at a dose of 0.5 mg/kg in Male albino Swiss mice. It counts as functional, Mus musculus.
Assay [20] has as its system Rattus norvegicus. As to the kind of experiment: Maximum percentage decrease in immobility time was determined after acute intraperitoneal administration of a dose of 20 mg/kg in rat. It counts as functional.
Assay [21] deals with Rattus norvegicus. As to the kind of experiment: Maximum percentage decrease in immobility time was determined after subchronic administration of a dose of 5 mg/kg in rat. It counts as functional.
Assay [22] has as its system Rattus norvegicus. As to the kind of experiment: Maximum percentage decrease in immobility time was determined after acute intraperitoneal administration of a dose of 5 mg/kg in rat. It counts as functional.
Assay [23] concerns Rattus norvegicus. The assay can be described thus: Maximum percentage decrease in immobility time was determined after subchronic administration of a dose of 2.5 mg/kg in rat. It counts as functional.
Assay [24] deals with Rattus norvegicus. As to the kind of experiment: Maximum percentage decrease in immobility time was determined after subchronic administration of a dose of 1.25 mg/kg in rat. It counts as functional.
Assay [25] relates to Rattus norvegicus. The assay can be described thus: Maximum percentage decrease in immobility time was determined after acute intraperitoneal administration of a dose of 10 mg/kg in rat. It counts as functional.
The nature of assay [26]: Maximum percentage decrease in immobility time was determined by despair test at a dose of 0.25 mg/kg in Male albino Swiss mice. It counts as functional, Mus musculus.
Assay [27] can be described thus: Maximum percentage decrease in immobility time was determined by despair test at a dose of 50 mg/kg in Male albino Swiss mice. It counts as functional, Mus musculus.
A short description of assay [28]: Maximum percentage decrease in immobility time was determined by despair test at a dose of 0.1 mg/kg in Male albino Swiss mice. It counts as functional, Mus musculus.
Assay [29] is described as follows: Maximum percentage decrease in immobility time was determined by despair test at a dose of 0.06 mg/kg in Male albino Swiss mice. It counts as functional, Mus musculus.
For assay [30], the species on record is Mus musculus. The assay can be described thus: Maximum percentage decrease in immobility time in mice, determined by despair test; NE=no effect. It counts as functional.
The nature of assay [31]: Maximum percentage decrease in immobility time was determined by despair test at a dose of 5 mg/kg in Male albino Swiss mice. It counts as functional, Mus musculus.
The nature of assay [32]: Maximum percentage decrease in immobility time was determined by despair test at a dose of 1 mg/kg in Male albino Swiss mice. It counts as functional, Mus musculus.
A short description of assay [33]: Maximum percentage decrease in immobility time was determined by despair test at a dose of 0.3 mg/kg in Male albino Swiss mice. It counts as functional, Mus musculus.

As usually defined, the ED50 is the dose at which the effect has come halfway, by size or by number of responders.

Active and inactive are the calls of the source. The rule behind the calls is not given here.

As for `CCCCCCC(=O)Nc1nnc(SCc2ccccc2)s1`, the “Maximum percentage decrease in immobility time” value (shortened to “Maximum percentage decrease”) in assay [1] was “inactive”.
Consider `CN(C)CCCN1c2ccccc2CCc2ccccc21` [IMIPRAMINE], for which the Decrease in assay [2] is recorded as less than 56%; in assay [3] it was less than 45%.
As for `O=C(Nc1nnc(SCc2ccccc2)s1)c1ccccc1`, in assay [1], the “Maximum percentage decrease” value was “inactive”.
As to `COc1cccc(CSc2nnc(N)s2)c1`, the Activity in assay [4] is 5.6; in assay [6], 180; in assay [8], 135; in assay [11] it was 5.6; in assay [13] it was 7.2; in assay [14] it was 146. Also, the Activity in [16] is listed as 4.7; in [17], 166. The Decrease in assay [5] was less than 68%; in [10], less than 46%; in assay [12] it was 19%; in assay [15], less than 26%; in assay [18], 21%. Moreover, the 50% effective dose (ED50) came to 534 mg/kg in assay [7] and 162 mg/kg in [9].
In the case of `Cc1ccc(CSc2nnc(N)s2)cc1`, in assay [1], the “Maximum percentage decrease” value was “inactive”.
On the same count and under the same terms, the entry for `CC(=O)Nc1nnc(SCc2cccc(Cl)c2)s1` is “inactive”.
For `COc1ccc(CSc2nnc(NC(C)=O)s2)cc1`, in [19], the Decrease stood at 10%.
Turning to `CCC(=O)Nc1nnc(SCc2ccccc2)s1`, in assay [1], the “Maximum percentage decrease” value was “inactive”.
Turning to `Nc1nnc(SCc2ccccc2)s1`, the Decrease in assay [20] was less than 24%; in assay [21], less than 28%; in assay [22], less than 33%; in assay [23], less than 31%; in assay [24], less than 23%; in assay [25], 10%. In assay [18], this compound registered a Decrease of 35%.
In assay [26], `CC(=O)Nc1nnc(SCc2ccc([N+](=O)[O-])cc2)s1` showed a Decrease of 16%.
`CSc1nnc(N(C)C(C)=O)s1`: in assay [1], the “Maximum percentage decrease” value was “inactive”.
Turning to `CSc1nnc(N)s1`, the Decrease in [27] stood at 23%.
On to `CC(=O)N(C)c1nnc(SC(C)C)s1`, for which the Decrease in assay [26] was found to be 17%.
`COc1cc(CSc2nnc(NC(C)=O)s2)cc(OC)c1OC` gave a Decrease in assay [28] of 14%.
On to `CC(=O)Nc1nnc(SCc2ccccc2)s1`, for which the Decrease in assay [29] stood at 22%.
On to `COc1cccc(CSc2nnc(NC(C)=O)s2)c1`, for which, in assay [1], the “Maximum percentage decrease” value was “inactive”.
Consider `CCCSc1nnc(N)s1`, for which, in [30], the NE entry was “inactive”.
On to `CC(=O)Nc1nnc(SCc2ccc(C)cc2)s1`, for which the “Maximum percentage decrease” value in assay [1] was “inactive”.
Compound `Nc1nnc(SCc2ccc(Cl)cc2)s1` yielded a Decrease in assay [28] of 15%.
On to `Cc1cccc(CSc2nnc(N)s2)c1`, for which the Decrease in [31] was determined as 17%.
As for `CC(=O)Nc1nnc(SCc2cccc([N+](=O)[O-])c2)s1`, the “Maximum percentage decrease” value in assay [1] was “inactive”.
Turning to `CC(=O)Nc1nnc(SC(C)C)s1`, the Decrease in assay [32] stood at 19%.
For the compound `COc1cc(CSc2nnc(N)s2)cc(OC)c1OC`, in assay [1], the “Maximum percentage decrease” value was “inactive”.
As to `CC(=O)Nc1nnc(SCc2ccc(Cl)cc2)s1`, the “Maximum percentage decrease” value in [1] was “inactive”.
As for `Nc1nnc(SCc2cccc([N+](=O)[O-])c2)s1`, the “Maximum percentage decrease” value in assay [1] was “inactive”.
Regarding `Nc1nnc(SCc2cccc(Cl)c2)s1`, the “Maximum percentage decrease” value in assay [1] is “inactive”.
Consider `Nc1nnc(SCc2ccc([N+](=O)[O-])cc2)s1`, for which the NE entry in [30] is “inactive”.
Compound `CC(C)Sc1nnc(N)s1` had a Decrease in [18] of 17%.
As to `COc1ccc(CSc2nnc(N)s2)cc1`, the Decrease in [33] amounted to 16%.
